System: corticospinal neurons (CSNs/CSMNs)
Test: Laser-capture microdissection and Illumina microarray gene expression in corticospinal neurons contralateral to stroke
Assay type: in vivo, rat
Description: In a separate group of animals (n=20), layer V pyramidal cells of the sensorimotor cortex were retrogradely labeled by injecting Alexa-Fluor-488-conjugated cholera toxin B subunit (CTB; 300 U/μl in sterile saline) into the cervical spinal cord. For this, animals were anesthetized with a combination of ketamine and Domitor (medetomidine) and a laminectomy was performed at the cervical level of the spinal cord (C2-C4). CTB was stereotaxically delivered into four sites lateral to the corticospinal tract. Injections (1.3 μl) were spaced 1 mm apart on the rostro-caudal axis, and were made 0.5 mm to the left and right of the midline. After allowing two weeks for transport of the tracer, we performed either sham surgery with no treatment (n=6) or stroke surgery combined with saline (n=3) or inosine (n=4) treatment as described above. Seven days later, animals were decapitated under transient gas anesthesia, brains were removed and rinsed in cold RPMI medium, and a tissue block containing the sensorimotor cortex was dissected and placed in OCT Tissue Tek Medium (Sakura Finetek USA Inc., CA) on dry ice within five minutes of death. Ten μm sections were cut onto precleaned Gold Seal RITE-ON glass slides (Gold Seal Prod-ucts, Portsmouth, N.H.), placed on dry ice, and rapidly stored at −80° C.
Slide-mounted sections were thawed and dehydrated in RNAse-free ethanol gradients and xylene. Retro-gradely labeled, fluorescent cortical pyramidal cells in the undamaged hemisphere were individually captured using the Arcturus VERITAS system. ≧500 cells were collected from each animal and stored in Arcturus extraction buffer at −80° C. Total RNA was extracted from cells using the Micro-to-Midi TotalRNA Purification System (Invitrogen, Carlsbad Calif.) and double-amplified using the TargetAmp 2-Round Aminoallyl-aRNA Amplification kit 1.0 (Epicentre, Madison, Wis.). Amplified RNA was checked for average fragment length using the Agilent RNA 6000 Nano LabChip kit (Agilent Technologies, Santa Clara, Calif.) and then biotinylated and hybridized (1 μg) on Illumina RatRef-12 Expression BeadChip arrays (Illumina, San Diego Calif.), querying the expression of >22,000 RefSeq-curated rat transcripts. Results were obtained from a total of 15 samples representing 6 untreated controls, 4 animals with stroke treated with saline and 5 animals with stroke treated with inosine. Slides were processed and scanned with Illumina BeadStation platform according to the manufacturer protocol.
Raw data was analyzed using Bioconductor packages (www.bioconductor.org, (Gentleman et al., 2004)). Low level quality-control analysis was performed using inter-array Pearson correlation and clustering based on variance. Two arrays (1 saline and 1 inosine-treated) were outliers and were excluded from the analysis. Data was normalized using quantile normalization, and analysis of differential expression was performed using a linear model fitting (LIMMA package, (Smyth, 2005). Differentially expressed genes were classified according to gene ontology using Bioconductor packages and online tools (DAVID, http://david.abcc.ncifcrf.gov/). Pathway analysis was carried out using Ingenuity Pathway Analysis (Ingenuity Systems, www.ingenuity.com).

For OC[C@H]1O[C@@H](n2cnc3c(O)ncnc32)[C@H](O)[C@@H]1O [inosine], the “Signal Intensity, MGC94053” value (ILMN_53763, inosine after stroke) was 469, the “Fold-Induction Stroke, ino vs. cntrl, Cnot7” value (ILMN_53955) was 0.60 and the “Signal Intensity, Cnot7” value (ILMN_53955, inosine after stroke) was 427. For the same molecule, the “Fold-Induction Stroke, ino vs. cntrl, Rnf11” value (ILMN_54109) was 0.49, the “Signal Intensity, Rnf11” value (ILMN_54109, inosine after stroke) was 825 and the “Fold-Induction Stroke, ino vs. cntrl, Scara3” value (ILMN_54123) was 0.78. For the same molecule, the “Signal Intensity, Scara3” value (ILMN_54123, inosine after stroke) was 470, the “Fold-Induction Stroke, ino vs. cntrl, Gabarapl2” value (ILMN_54140) was 0.75 and the “Signal Intensity, Gabarapl2” value (ILMN_54140, inosine after stroke) was 1324. The “Fold-induction CSMNs: Vim” value (ILMN_54242, over and above inosine's effect of decreasing stroke-induced changes) was 1.96 fold, the “Fold-Induction Stroke, ino vs. cntrl, LOC501145” value (ILMN_54288) was 0.70 and the “Signal Intensity, LOC501145” value (ILMN_54288, inosine after stroke) was 626. The “Fold-Induction Stroke, ino vs. cntrl, Echdc1” value (ILMN_54458) was 0.67, the “Signal Intensity, Echdc1” value (ILMN_54458, inosine after stroke) was 531 and the “Fold-Induction Stroke, ino vs. cntrl, LOC498407” value (ILMN_54747) was 0.64. The “Signal Intensity, LOC498407” value (ILMN_54747, inosine after stroke) was 1261, the “Fold-Induction Stroke, ino vs. cntrl, Fuca2” value (ILMN_55057) was 0.56 and the “Signal Intensity, Fuca2” value (ILMN_55057, inosine after stroke) was 662. For the same molecule, the “Fold-Induction Stroke, ino vs. cntrl, Grm3” value (ILMN_55270) was 0.50, the “Signal Intensity, Grm3” value (ILMN_55270, inosine after stroke) was 387 and the “Fold-induction CSMNs: Rnaset2” value (ILMN_55431, over and above inosine's effect of decreasing stroke-induced changes) was 1.88 fold. The “Fold-Induction, complement cascade gene C1qg” value (ILMN_55502, LCM-captured CSMNs contralateral a stroke) was 3.96 fold, the “Fold-induction CSMNs: C1qg” value (ILMN_55502, over and above inosine's effect of decreasing stroke-induced changes) was 2.73 fold and the “Fold-Induction Stroke, ino vs. cntrl, Map2k4” value (ILMN_55667) was 0.65. For the same molecule, the “Signal Intensity, Map2k4” value (ILMN_55667, inosine after stroke) was 9089, the “Fold-Induction Stroke, ino vs. cntrl, LOC498618” value (ILMN_55685) was 0.49 and the “Signal Intensity, LOC498618” value (ILMN_55685, inosine after stroke) was 3089. The “Fold-Induction, complement cascade gene C1s” value (ILMN_55706, LCM-captured CSMNs contralateral a stroke) was 2.07 fold, the “Fold-induction CSMNs: C1s” value (ILMN_55706, over and above inosine's effect of decreasing stroke-induced changes) was 2.03 fold and the “Fold-induction CSMNs: Bzrp” value (ILMN_55731, over and above inosine's effect of decreasing stroke-induced changes) was 2.38 fold. For the same molecule, the “Fold-Induction Stroke, ino vs. cntrl, Klhl2” value (ILMN_55879) was 0.78, the “Signal Intensity, Klhl2” value (ILMN_55879, inosine after stroke) was 516 and the “Fold-Induction Stroke, ino vs. cntrl, Tceal1” value (ILMN_55905) was 0.57. The “Signal Intensity, Tceal1” value (ILMN_55905, inosine after stroke) was 286, the “Fold-Induction Stroke, ino vs. cntrl, LOC502317” value (ILMN_55909) was 0.40 and the “Signal Intensity, LOC502317” value (ILMN_55909, inosine after stroke) was 689. For the same molecule, the “Fold-Induction Stroke, ino vs. cntrl, Nr2f1” value (ILMN_55914) was 0.52, the “Signal Intensity, Nr2f1” value (ILMN_55914, inosine after stroke) was 526 and the “Fold-Induction Stroke, ino vs. cntrl, Slc16a1” value (ILMN_55995) was 0.56. For the same molecule, the “Signal Intensity, Slc16a1” value (ILMN_55995, inosine after stroke) was 827, the “Fold-Induction Stroke, ino vs. cntrl, Tpt1” value (ILMN_56078) was 0.89 and the “Signal Intensity, Tpt1” value (ILMN_56078, inosine after stroke) was 11229. The “Fold-Induction Stroke, ino vs. cntrl, Acsl3” value (ILMN_56170) was 0.50, the “Signal Intensity, Acsl3” value (ILMN_56170, inosine after stroke) was 389 and the “Fold-Induction Stroke, ino vs. cntrl, Scn1a” value (ILMN_56183) was 0.88. For the same molecule, the “Signal Intensity, Scn1a” value (ILMN_56183, inosine after stroke) was 517, the “Fold-Induction Stroke, ino vs. cntrl, Cetn3” value (ILMN_56556) was 0.63 and the “Signal Intensity, Cetn3” value (ILMN_56556, inosine after stroke) was 649. For the same molecule, the “Fold-Induction Stroke, ino vs. cntrl, Zfp68” value (ILMN_56593) was 0.59, the “Signal Intensity, Zfp68” value (ILMN_56593, inosine after stroke) was 727 and the “Fold-Induction Stroke, ino vs. cntrl, Pnrc1” value (ILMN_56710) was 0.65. For the same molecule, the “Signal Intensity, Pnrc1” value (ILMN_56710, inosine after stroke) was 626, the “Fold-Induction Stroke, ino vs. cntrl, RGD1308082” value (ILMN_56896) was 0.62 and the “Signal Intensity, RGD1308082” value (ILMN_56896, inosine after stroke) was 428. The “Fold-Induction Stroke, ino vs. cntrl, Scg3” value (ILMN_56986) was 0.69, the “Signal Intensity, Scg3” value (ILMN_56986, inosine after stroke) was 870 and the “Fold-Induction Stroke, ino vs. cntrl, Plp” value (ILMN_57073) was 0.51. For the same molecule, the “Signal Intensity, Plp” value (ILMN_57073, inosine after stroke) was 1222, the “Fold-induction CSMNs: Serpinb1a” value (ILMN_57422, over and above inosine's effect of decreasing stroke-induced changes) was 2.41 fold and the “Fold-Induction Stroke, ino vs. cntrl, Lisch7” value (ILMN_57520) was 0.69. For the same molecule, the “Signal Intensity, Lisch7” value (ILMN_57520, inosine after stroke) was 484, the “Fold-Induction Stroke, ino vs. cntrl, Olfm3” value (ILMN_57553) was 0.62 and the “Signal Intensity, Olfm3” value (ILMN_57553, inosine after stroke) was 473. For the same molecule, the “Fold-Induction Stroke, ino vs. cntrl, Vmp1” value (ILMN_57554) was 0.57, the “Signal Intensity, Vmp1” value (ILMN_57554, inosine after stroke) was 1305 and the “Fold-Induction Stroke, ino vs. cntrl, Sc4mol” value (ILMN_57630) was 0.52. For the same molecule, the “Signal Intensity, Sc4mol” value (ILMN_57630, inosine after stroke) was 271, the “Fold-Induction Stroke, ino vs. cntrl, RGD1308373” value (ILMN_57697) was 0.66 and the “Signal Intensity, RGD1308373” value (ILMN_57697, inosine after stroke) was 2921. The “Fold-Induction Stroke, ino vs. cntrl, Gucy1b3” value (ILMN_57719) was 0.57, the “Signal Intensity, Gucy1b3” value (ILMN_57719, inosine after stroke) was 3956 and the “Fold-Induction Stroke, ino vs. cntrl, Tnnc2” value (ILMN_57928) was 0.48. For the same molecule, the “Signal Intensity, Tnnc2” value (ILMN_57928, inosine after stroke) was 650.

— patent US8912144B2, “Method for treating stroke via administration of NEP1-40 and inosine” (Children's Medical Center Corporation, priority 2003, dated 2014)
